ChEMBL document CHEMBL5500346, “Targeting EGFR degradation by autophagosome degraders” (Eur J Med Chem, 2024)
The source made the active and inactive calls. The rule behind the calls is not given here.

What was measured:
[1] = biological target: T1, Microtubule-associated protein 1 light chain 3 beta/Epidermal growth factor receptor (Homo sapiens, UniProt P00533+Q9GZQ8); assay: ATTEC activity at LC3B/EGFR in human HCC827 cells assessed as protein degradation by immunoblot analysis; format: cell-based
[2] = biological target: T1, Microtubule-associated protein 1 light chain 3 beta/Epidermal growth factor receptor; assay: ATTEC activity at LC3B/EGFR in human NCI-H1975 cells assessed as protein degradation; format: cell-based
[3] = biological target: T1, Microtubule-associated protein 1 light chain 3 beta/Epidermal growth factor receptor; assay: ATTEC activity at LC3B/EGFR in MLN4924-treated human HCC827 cells assessed as protein degradation at 1 uM incubated for 12 hrs by Western blot analysis; format: cell-based
[4] = Toxicity in C57BL/6 mouse assessed as serum urea level at 200 mg/kg, ip measured after 24 hrs (reference value: 18.934 mmol/L); format: organism-based; settings: in vivo
[5] = Toxicity in C57BL/6 mouse assessed as dyspnea upto 200 mg/kg, ip measured after 24 hrs; format: organism-based; settings: in vivo
[6] = Toxicity in C57BL/6 mouse assessed as histological change in liver upto 200 mg/kg, ip measured after 24 hrs by H and E staining based analysis; format: organism-based; settings: in vivo
[7] = Toxicity in C57BL/6 mouse assessed as body weight loss upto 200 mg/kg, ip measured after 24 hrs; format: organism-based; settings: in vivo
[8] = Toxicity in C57BL/6 mouse assessed as serum ALT level at 100 mg/kg, ip measured after 24 hrs (reference value: 42.554 U/L); format: organism-based; settings: in vivo
[9] = Toxicity in C57BL/6 mouse assessed as serum ALP level at 100 mg/kg, ip measured after 24 hrs (reference value: 250.654 U/L); format: organism-based; settings: in vivo
[10] = biological target: T1, Microtubule-associated protein 1 light chain 3 beta/Epidermal growth factor receptor; assay: Binding affinity to biotinylated LC3B/EGFR in human HCC827 cells assessed as dissociation constant BLI assay; format: cell-based
[11] = Toxicity in C57BL/6 mouse assessed as serum creatinine level at 200 mg/kg, ip measured after 24 hrs (reference value: 32.258 umol/L); format: organism-based; settings: in vivo
[12] = biological target: T1, Microtubule-associated protein 1 light chain 3 beta/Epidermal growth factor receptor; assay: ATTEC activity at LC3B/EGFR in MG132-treated human HCC827 cells assessed as protein degradation at 1 uM incubated for 12 hrs by Western blot analysis; format: cell-based
[13] = Toxicity in C57BL/6 mouse assessed as serum ALB level at 100 mg/kg, ip measured after 24 hrs (reference value: 40.01 g/L); format: organism-based; settings: in vivo
[14] = biological target: T1, Microtubule-associated protein 1 light chain 3 beta/Epidermal growth factor receptor; assay: ATTEC activity at LC3B/EGFR in human A549 cells assessed as protein degradation; format: cell-based
[15] = test system: NCI-H3255; assay: Inhibition of colony formation in human NCI-H3255 cells incubated for 2 weeks by crystal violet staining based analysis; format: functional, cell-based; settings: dose 0.1-10 µM
[16] = biological target: T1, Microtubule-associated protein 1 light chain 3 beta/Epidermal growth factor receptor; assay: ATTEC activity at LC3B/EGFR in chloroquine-treated human HCC827 cells assessed as protein degradation at 1 uM incubated for 16 hrs by Western blot analysis; format: cell-based
[17] = Toxicity in C57BL/6 mouse assessed as lethargy upto 200 mg/kg, ip measured after 24 hrs; format: organism-based; settings: in vivo
[18] = biological target: T1, Microtubule-associated protein 1 light chain 3 beta/Epidermal growth factor receptor; assay: ATTEC activity at LC3B/EGFR in human HCC827 cells assessed as protein degradation; format: cell-based
[19] = Toxicity in C57BL/6 mouse assessed as serum DBIL level at 100 mg/kg, ip measured after 24 hrs (reference value: 7.868 umol/L); format: organism-based; settings: in vivo
[20] = test system: NCI-H1975; assay: Antiproliferative activity against human NCI-H1975 cells incubated for 72 hrs by CCK8 assay; format: functional, cell-based; settings: NCI-H1975, 72 h
[21] = Toxicity in C57BL/6 mouse assessed as histological change in heart upto 200 mg/kg, ip measured after 24 hrs by H and E staining based analysis; format: organism-based; settings: in vivo
[22] = Stability in mouse plasma at 1 mg/ml incubated for 160 mins by HPLC analysis; format: ADME, cell-free; settings: read-out: Stability
[23] = Toxicity in C57BL/6 mouse assessed as serum creatinine level at 100 mg/kg, ip measured after 24 hrs (reference value: 32.258 umol/L); format: organism-based; settings: in vivo
[24] = test system: PC-9; assay: In vivo ATTEC activity at LC3B/EGFR in human PC-9 cells implanted in NOD-SCID mouse assessed as protein degradation at 10 mg/kg, ip administered every other day for 3 weeks by Western blot analysis; format: functional, organism-based
[25] = Toxicity in C57BL/6 mouse assessed as ataxia upto 200 mg/kg, ip measured after 24 hrs; format: organism-based; settings: in vivo
[26] = biological target: T1, Microtubule-associated protein 1 light chain 3 beta/Epidermal growth factor receptor; assay: ATTEC activity at LC3B/EGFR in Gefitinib-resistant human PC-9 cells assessed as protein degradation; format: cell-based
[27] = Toxicity in C57BL/6 mouse assessed as serum ALP level at 200 mg/kg, ip measured after 24 hrs (reference value: 250.654 U/L); format: organism-based; settings: in vivo
[28] = Toxicity in C57BL/6 mouse assessed as serum TBA level at 200 mg/kg, ip measured after 24 hrs (reference value: 2.674 umol/L); format: organism-based; settings: in vivo
[29] = test system: PC-9; assay: Antiproliferative activity against human PC-9 cells incubated for 72 hrs by CCK8 assay; format: functional, cell-based; settings: PC-9, 72 h
[30] = Toxicity in C57BL/6 mouse assessed as serum uric acid level at 100 mg/kg, ip measured after 24 hrs (reference value: 78.784 umol/L); format: organism-based; settings: in vivo
[31] = biological target: T1, Microtubule-associated protein 1 light chain 3 beta/Epidermal growth factor receptor; assay: ATTEC activity at LC3B/EGFR in CHX-treated human HCC827 cells assessed as protein degradation at 1 uM incubated for 12 hrs by Western blot analysis; format: cell-based
[32] = Half life in Sprague-Dawley rat at 20 mg/kg, ip; format: ADME, organism-based; settings: in vivo
[33] = biological target: T1, Microtubule-associated protein 1 light chain 3 beta/Epidermal growth factor receptor; assay: ATTEC activity at LC3B/EGFR in Baf-treated human HCC827 cells assessed as protein degradation at 1 uM incubated for 16 hrs by Western blot analysis; format: cell-based
[34] = test system: A549; assay: Antiproliferative activity against human A549 cells incubated for 72 hrs by CCK8 assay; format: functional, cell-based; settings: A549, 72 h
[35] = test system: PC-9; assay: Anti-tumor activity against human PC-9 cells implanted in NOD-SCID mouse at 20 mg/kg, ip administered every other day for 3 weeks relative to control; format: functional; settings: PC-9, 504 h, read-out: TGI
[36] = test system: HCC827; assay: Antiproliferative activity against human HCC827 cells incubated for 72 hrs by CCK8 assay; format: functional, cell-based; settings: HCC827, 72 h
[37] = biological target: T1, Microtubule-associated protein 1 light chain 3 beta/Epidermal growth factor receptor; assay: ATTEC activity at LC3B/EGFR in human HCC827 cells assessed as protein degradation at 1 uM incubated for 18 hrs by global proteomic profiling analysis; format: cell-based
[38] = test system: HCC827; assay: Inhibition of colony formation in human HCC827 cells incubated for 2 weeks by crystal violet staining based analysis; format: functional, cell-based; settings: dose 0.1-10 µM
[39] = Toxicity in C57BL/6 mouse assessed as serum GGT level at 100 mg/kg, ip measured after 24 hrs (reference value: 1.62 U/L); format: organism-based; settings: in vivo
[40] = Toxicity in C57BL/6 mouse assessed as serum AST level at 100 mg/kg, ip measured after 24 hrs (reference value: 234.682 U/L); format: organism-based; settings: in vivo
[41] = Toxicity in C57BL/6 mouse assessed as serum GGT level at 200 mg/kg, ip measured after 24 hrs (reference value: 1.62 U/L); format: organism-based; settings: in vivo
[42] = Toxicity in C57BL/6 mouse assessed as serum DBIL level at 200 mg/kg, ip measured after 24 hrs (reference value: 7.868 umol/L); format: organism-based; settings: in vivo

COc1cc2ncnc(Nc3ccc(F)c(Cl)c3)c2cc1OCCOCCOCCOCCNC(=O)COc1c(Br)cc(/C=C2\C(=O)Nc3ccc(I)cc32)cc1Br
DC50 [1]: 980 nM | Activity [2]: inactive | Activity [3]: Active | Activity [4]: 19.029 mmol/L | Activity [5]: Non-Toxic | Activity [6]: Non-Toxic | Activity [7]: Non-Toxic | Activity [8]: 65.504 U/L | Activity [9]: 185.73 U/L | Kd [10]: 710 nM | Activity [11]: 30.848 µmol/L | Activity [12]: Active | Activity [13]: 35.48 g/L | Activity [14]: inactive | inhibition [15]: Dose-Dependent Effect | Activity [16]: inactive | Activity [17]: Non-Toxic | Activity [18]: Active | Activity [19]: 6.434 µmol/L | IC50 [20]: > 10000 nM | Activity [21]: Non-Toxic | remaining at 2.667 h, 1 mg/ml [22]: 90% | Activity [23]: 27.8 µmol/L | Activity [24]: Active | Activity [25]: Non-Toxic | Activity [26]: inactive | Activity [27]: 177.394 U/L | Activity [28]: 3.062 µmol/L | IC50 [29]: 5610 nM | Activity [30]: 44.454 µmol/L | Activity [31]: inactive | half-life [32]: 10.5 h | Activity [33]: inactive | IC50 [34]: > 10000 nM | inhibition in vivo at 20 mg/kg [35]: 63.4% | IC50 [36]: 278 nM | Activity [37]: Active | inhibition [38]: Dose-Dependent Effect | Activity [39]: 1.682 U/L | Activity [40]: 229.632 U/L | Activity [41]: 1.712 U/L | Activity [42]: 6.434 µmol/L
